“And” between values parts separate entries of the source, which are not always exact repeats. Equal entries are not always repeated. Non-standard residues stand in square brackets, D forms with d. Residues, ends and D or L forms follow the SMILES beside them. *: point of attachment. pY = N[C@@H](Cc1ccc(OP(=O)(O)O)cc1)C(=O)O; Caffeoyl = O=C(/C=C/c1ccc(O)c(O)c1)*
Assays:
Assay in all cases: biochemical
Assay type in all cases: binding
[1] = molecular target: T1, SH3BP2 (Homo sapiens, UniProt P78314); conditions: for remaining activity at 10 µM: read-out: percent of DMSO vehicle control
T1 construct: made in house; host or cells: HEK293 (transient transfection), unpurified extract
T1 sequence (P78314 1-561): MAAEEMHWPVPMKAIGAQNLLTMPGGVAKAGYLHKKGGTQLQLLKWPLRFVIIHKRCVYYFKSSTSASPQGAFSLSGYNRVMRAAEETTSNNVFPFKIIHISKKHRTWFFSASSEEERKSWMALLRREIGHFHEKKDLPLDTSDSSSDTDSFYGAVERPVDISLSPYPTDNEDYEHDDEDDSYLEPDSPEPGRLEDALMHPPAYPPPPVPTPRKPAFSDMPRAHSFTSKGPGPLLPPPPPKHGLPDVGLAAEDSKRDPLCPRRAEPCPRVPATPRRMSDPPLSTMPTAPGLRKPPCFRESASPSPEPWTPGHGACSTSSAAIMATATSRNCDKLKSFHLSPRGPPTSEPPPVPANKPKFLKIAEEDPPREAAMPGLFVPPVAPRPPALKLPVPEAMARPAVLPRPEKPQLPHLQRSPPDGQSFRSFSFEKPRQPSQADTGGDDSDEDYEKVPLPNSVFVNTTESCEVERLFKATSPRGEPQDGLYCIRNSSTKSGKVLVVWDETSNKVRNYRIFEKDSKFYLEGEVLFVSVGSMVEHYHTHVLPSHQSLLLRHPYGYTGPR

[2] = molecular target: T2, TNS1 (Homo sapiens, UniProt Q9HBL0); conditions: for percent of DMSO vehicle control at 10 µM: read-out: percent of DMSO vehicle control
T2 construct: made in house; host or cells: HEK293 (transient transfection), unpurified extract
T2 sequence (Q9HBL0 whole entry): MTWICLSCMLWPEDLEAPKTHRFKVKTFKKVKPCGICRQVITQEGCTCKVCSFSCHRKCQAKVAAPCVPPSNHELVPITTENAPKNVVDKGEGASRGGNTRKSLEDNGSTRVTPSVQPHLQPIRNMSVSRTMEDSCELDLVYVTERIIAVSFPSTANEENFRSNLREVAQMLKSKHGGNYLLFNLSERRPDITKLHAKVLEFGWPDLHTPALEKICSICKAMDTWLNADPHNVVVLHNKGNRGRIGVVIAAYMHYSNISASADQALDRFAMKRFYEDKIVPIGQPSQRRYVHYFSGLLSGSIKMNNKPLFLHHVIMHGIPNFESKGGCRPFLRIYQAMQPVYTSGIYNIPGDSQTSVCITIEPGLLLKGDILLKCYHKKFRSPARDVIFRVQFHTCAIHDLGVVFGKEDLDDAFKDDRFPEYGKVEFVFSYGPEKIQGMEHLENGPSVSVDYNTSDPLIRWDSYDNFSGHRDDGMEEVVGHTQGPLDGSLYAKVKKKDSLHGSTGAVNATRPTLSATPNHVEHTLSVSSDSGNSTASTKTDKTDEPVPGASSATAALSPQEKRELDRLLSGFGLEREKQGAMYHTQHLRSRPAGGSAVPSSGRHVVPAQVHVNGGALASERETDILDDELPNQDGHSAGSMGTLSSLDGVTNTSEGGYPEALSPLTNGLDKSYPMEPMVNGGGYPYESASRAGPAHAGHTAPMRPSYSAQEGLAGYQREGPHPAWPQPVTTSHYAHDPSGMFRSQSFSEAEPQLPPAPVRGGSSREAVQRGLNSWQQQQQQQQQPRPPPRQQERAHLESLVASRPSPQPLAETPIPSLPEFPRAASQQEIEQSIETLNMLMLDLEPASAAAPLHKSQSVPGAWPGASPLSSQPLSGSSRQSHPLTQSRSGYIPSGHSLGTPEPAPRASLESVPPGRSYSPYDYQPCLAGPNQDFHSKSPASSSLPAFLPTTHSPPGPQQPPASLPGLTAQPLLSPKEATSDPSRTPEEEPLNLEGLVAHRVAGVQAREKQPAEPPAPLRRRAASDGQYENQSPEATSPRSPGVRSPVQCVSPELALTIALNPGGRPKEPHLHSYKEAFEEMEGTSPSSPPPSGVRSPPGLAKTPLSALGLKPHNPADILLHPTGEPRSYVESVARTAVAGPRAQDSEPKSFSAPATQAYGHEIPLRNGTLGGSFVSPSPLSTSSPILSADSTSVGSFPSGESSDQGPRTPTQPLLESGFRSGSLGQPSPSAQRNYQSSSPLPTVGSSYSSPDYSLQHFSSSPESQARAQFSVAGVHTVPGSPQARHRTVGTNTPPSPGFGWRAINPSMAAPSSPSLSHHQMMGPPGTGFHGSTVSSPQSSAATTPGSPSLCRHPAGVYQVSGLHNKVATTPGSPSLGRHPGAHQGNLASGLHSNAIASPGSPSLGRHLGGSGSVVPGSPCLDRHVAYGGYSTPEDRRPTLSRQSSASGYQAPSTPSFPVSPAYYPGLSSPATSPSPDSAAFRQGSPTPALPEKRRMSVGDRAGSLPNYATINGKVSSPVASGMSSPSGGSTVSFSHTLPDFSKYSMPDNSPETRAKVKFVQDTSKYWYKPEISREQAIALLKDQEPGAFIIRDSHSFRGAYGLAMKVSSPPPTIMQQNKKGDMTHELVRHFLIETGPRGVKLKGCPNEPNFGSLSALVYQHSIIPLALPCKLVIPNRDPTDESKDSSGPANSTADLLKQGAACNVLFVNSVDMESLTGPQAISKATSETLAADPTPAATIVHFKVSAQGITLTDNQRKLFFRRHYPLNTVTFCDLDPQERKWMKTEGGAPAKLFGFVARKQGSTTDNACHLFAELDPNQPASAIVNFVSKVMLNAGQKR

[3] = molecular target: T3, APS (SH2B2) (Homo sapiens, UniProt O14492); conditions: for percent of DMSO vehicle control at 10 µM: read-out: percent of DMSO vehicle control
T3 construct: the DNA-tagged SH2 domain concentrations used in this study were <0.1 nM; made in house; host or cells: HEK293 (transient transfection; unpurified extract)
T3 sequence (O14492 417-515 limits assumed): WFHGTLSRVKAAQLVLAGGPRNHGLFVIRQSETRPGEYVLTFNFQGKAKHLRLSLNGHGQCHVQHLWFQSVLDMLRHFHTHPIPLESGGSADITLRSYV

[4] = molecular target: T4, CRK (Homo sapiens, UniProt P46108); conditions: for percent of DMSO vehicle control at 10 µM: read-out: percent of DMSO vehicle control
T4 construct: the DNA-tagged SH2 domain concentrations used in this study were <0.1 nM; made in house; host or cells: HEK293 (transient transfection; unpurified extract)
T4 sequence (P46108 13-118 limits assumed): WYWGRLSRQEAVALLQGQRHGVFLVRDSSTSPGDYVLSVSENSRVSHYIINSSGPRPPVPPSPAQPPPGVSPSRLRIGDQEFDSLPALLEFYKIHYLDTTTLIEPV

[5] = molecular target: T5, FRK (Homo sapiens, UniProt P42685); conditions: for percent of DMSO vehicle control at 10 µM: read-out: percent of DMSO vehicle control
T5 construct: the DNA-tagged SH2 domain concentrations used in this study were <0.1 nM; made in house; host or cells: HEK293 (transient transfection; unpurified extract)
T5 sequence (P42685 116-208 limits assumed): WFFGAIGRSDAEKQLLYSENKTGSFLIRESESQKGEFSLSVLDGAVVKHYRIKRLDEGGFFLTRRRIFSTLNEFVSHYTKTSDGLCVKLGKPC

[6] = molecular target: T6, PLCG1(SH2dom.C-term.) (Homo sapiens, UniProt P19174); conditions: for remaining activity at 10 µM: read-out: percent of DMSO vehicle control
T6 construct: SH2dom.C-term. denotes SH2 domain closest to C-terminus of protein; made in house; host or cells: HEK293 (transient transfection, unpurified extract)
T6 sequence (P19174 668-756 limits assumed): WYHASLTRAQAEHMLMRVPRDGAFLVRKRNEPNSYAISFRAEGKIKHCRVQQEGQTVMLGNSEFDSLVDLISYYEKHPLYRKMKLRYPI

[7] = molecular target: T7, PTPN6(SH2dom.N-term.) (Homo sapiens, UniProt P29350); conditions: for remaining activity at 10 µM: read-out: percent of DMSO vehicle control
T7 construct: SH2dom.N-term. denotes SH2 domain closest to N-terminus of protein; made in house; host or cells: HEK293 (transient transfection, unpurified extract)
T7 sequence (P29350 4-100 limits assumed): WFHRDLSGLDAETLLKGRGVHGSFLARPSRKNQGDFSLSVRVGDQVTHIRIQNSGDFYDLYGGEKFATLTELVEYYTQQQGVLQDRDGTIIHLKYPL

[8] = molecular target: T8, RASA1(SH2dom.N-term.) (Homo sapiens, UniProt P20936); conditions: for remaining activity at 10 µM: read-out: percent of DMSO vehicle control
T8 construct: SH2dom.N-term. denotes SH2 domain closest to N-terminus of protein; made in house; host or cells: HEK293 (transient transfection), unpurified extract
T8 sequence (P20936 181-272 limits assumed): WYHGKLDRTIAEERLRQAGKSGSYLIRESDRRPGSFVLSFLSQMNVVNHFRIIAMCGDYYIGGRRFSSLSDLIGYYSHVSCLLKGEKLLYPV

[9] = molecular target: T9, SLAP2 (Homo sapiens, UniProt Q9H6Q3); conditions: for remaining activity at 10 µM: read-out: percent of DMSO vehicle control
T9 construct: made in house; host or cells: HEK293 (transient transfection), unpurified extract
T9 sequence (Q9H6Q3 1-261): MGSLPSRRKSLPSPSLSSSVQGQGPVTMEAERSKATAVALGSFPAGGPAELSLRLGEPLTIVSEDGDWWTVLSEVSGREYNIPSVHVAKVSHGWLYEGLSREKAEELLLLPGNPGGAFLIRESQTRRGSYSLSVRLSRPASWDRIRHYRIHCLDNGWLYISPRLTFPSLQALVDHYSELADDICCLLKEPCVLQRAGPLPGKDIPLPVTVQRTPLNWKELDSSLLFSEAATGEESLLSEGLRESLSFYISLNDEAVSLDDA

[10] = molecular target: T10, SOCS6 (Homo sapiens, UniProt O14544); conditions: for remaining activity at 10 µM: read-out: percent of DMSO vehicle control
T10 construct: made in house; host or cells: HEK293 (transient transfection), unpurified extract
T10 sequence (O14544 1-535): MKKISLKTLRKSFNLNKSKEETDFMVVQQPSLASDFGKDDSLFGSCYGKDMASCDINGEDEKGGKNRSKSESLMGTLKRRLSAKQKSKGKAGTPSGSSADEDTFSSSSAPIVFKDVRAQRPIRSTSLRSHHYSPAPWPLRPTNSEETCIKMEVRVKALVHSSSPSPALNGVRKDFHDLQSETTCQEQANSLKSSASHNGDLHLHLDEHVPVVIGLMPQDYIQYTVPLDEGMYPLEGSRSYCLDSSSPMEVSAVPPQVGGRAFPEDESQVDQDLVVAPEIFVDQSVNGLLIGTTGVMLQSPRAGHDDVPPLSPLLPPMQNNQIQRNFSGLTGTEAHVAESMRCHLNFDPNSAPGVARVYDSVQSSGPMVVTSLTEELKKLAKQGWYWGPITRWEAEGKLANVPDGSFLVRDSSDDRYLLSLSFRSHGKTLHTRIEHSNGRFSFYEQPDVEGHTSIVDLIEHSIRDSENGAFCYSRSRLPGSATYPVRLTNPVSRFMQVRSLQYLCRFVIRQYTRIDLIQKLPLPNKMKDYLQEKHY

[11] = molecular target: T11, TXK (Homo sapiens, UniProt P42681); conditions: for remaining activity at 10 µM: read-out: percent of DMSO vehicle control
T11 construct: made in house; host or cells: HEK293 (transient transfection), unpurified extract
T11 sequence (P42681 1-527): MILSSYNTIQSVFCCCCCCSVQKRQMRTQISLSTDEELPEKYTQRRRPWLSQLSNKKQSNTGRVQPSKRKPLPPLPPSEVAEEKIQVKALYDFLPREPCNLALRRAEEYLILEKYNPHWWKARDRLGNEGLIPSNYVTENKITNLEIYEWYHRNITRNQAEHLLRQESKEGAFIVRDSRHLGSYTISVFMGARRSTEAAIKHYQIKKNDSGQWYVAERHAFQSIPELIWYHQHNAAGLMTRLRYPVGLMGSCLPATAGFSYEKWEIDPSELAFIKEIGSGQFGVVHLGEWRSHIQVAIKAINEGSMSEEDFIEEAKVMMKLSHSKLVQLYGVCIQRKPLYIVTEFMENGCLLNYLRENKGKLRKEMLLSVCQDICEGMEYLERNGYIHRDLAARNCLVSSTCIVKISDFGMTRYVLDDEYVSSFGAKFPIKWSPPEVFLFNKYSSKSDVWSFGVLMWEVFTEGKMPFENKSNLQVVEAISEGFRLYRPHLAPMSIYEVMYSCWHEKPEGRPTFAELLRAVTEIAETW

Structure (SMILES)	Kd [1]	Kd [2]	percent of DMSO vehicle control at 10 µM [3]	percent of DMSO vehicle control at 10 µM [4]	percent of DMSO vehicle control at 10 µM [5]	remaining activity at 10 µM [6]	remaining activity at 10 µM [7]	remaining activity at 10 µM [8]	remaining activity at 10 µM [1]	remaining activity at 10 µM [9]	remaining activity at 10 µM [10]	percent of DMSO vehicle control at 10 µM [2]	remaining activity at 10 µM [11]	further results
CC[C@H](C)[C@H](NC(=O)[C@H](CO)NC(=O)[C@H](CC(C)C)NC(=O)[C@H](CCCNC(=N)N)NC(=O)[C@H](CO)NC(=O)[C@H](CS)NC(C)=O)C(=O)N[C@@H](Cc1ccc(OP(=O)(O)O)cc1)C(=O)N[C@@H](CC(=O)O)C(=O)N[C@@H](CC(N)=O)C(=O)N[C@H](C(=O)N1CCC[C@H]1C(=O)NCC(N)=O)C(C)C [Ac-CSRLSIpYDNVPG-NH2] (Ac-CSRLSI[pY]DNVPG-NH2)	209 ± 10.1 nM	1350 ± 530 nM												
CC[C@H](C)[C@H](NC(=O)[C@H](CCC(=O)O)NC(=O)[C@H](CCC(=O)O)NC(=O)[C@H](Cc1ccc(OP(=O)(O)O)cc1)NC(C)=O)C(=O)N[C@@H](CCC(=O)O)C(N)=O [Ac-pYEEIE-NH2] (Ac-[pY]EEIE-NH2)														percent of DMSO vehicle control ([3]; primary screen, 10 μM): 121.8%; percent of DMSO vehicle control ([4]; primary screen, 10 μM): 114.0%; percent of DMSO vehicle control ([5]; primary screen, 10 μM): 82.5%; percent of DMSO vehicle control ([6]; primary screen, 10 μM): 37.9±3.6%; percent of DMSO vehicle control ([7]; primary screen, 10 μM): 163.9%; percent of DMSO vehicle control ([8]; primary screen, 10 μM): 121.2%; percent of DMSO vehicle control ([1]; primary screen, 10 μM): 90.0±2.1%; percent of DMSO vehicle control ([9]; primary screen, 10 μM): 202.8%; percent of DMSO vehicle control ([10]; primary screen, 10 μM): 95.6±6.2%; percent of DMSO vehicle control ([2]; primary screen, 10 μM): 161.1%; percent of DMSO vehicle control ([11]; primary screen, 10 μM): 109.9%
CC(=O)N[C@@H](Cc1ccc(CP(=O)(O)O)cc1)C(=O)NC1(C(=O)N[C@@H](CC(N)=O)C(=O)NCCCc2c(O)ccc3ccccc23)CCCCC1 [CGP78850]		408 nM	128 ± 7.6%	88.3 ± 0.9%	89.4 ± 19.2%	96.8 ± 4.1%	112 ± 9.8%	47.6 ± 2.5%	77.8 ± 0.5%	91.4 ± 15.3%	63.3 ± 5.3%	16.4 ± 0.3%	74.4 ± 2.5%	
CC[C@H](C)[C@H](NC(=O)[C@H](CCC(=O)O)NC(=O)[C@H](CCC(=O)O)NC(=O)[C@H](Cc1ccc(OP(=O)(O)O)cc1)NC(=O)/C=C/c1ccc(O)c(O)c1)C(=O)N[C@@H](CCC(=O)O)C(=O)O [Caffeic acid-pYEEIE] (Caffeoyl-[pY]EEIE-OH)	1020 ± 600 nM	3800 ± 610 nM	2.2 ± 0.3%	3.1 ± 2.8%	0.1 ± 0.1%	0%	118 ± 19.5%	0.1%	0.9 ± 0.3%	5.3 ± 3.8%	8.2 ± 0.1%	25.5 ± 1.1%	2.7 ± 0.3%	Kd [3]: 2300 ± 450 nM; Kd [4]: 2300 ± 670 nM; Kd [5]: 2.2 ± 0.47 nM; Kd [6]: 14 ± 11 nM; Kd [8]: 230 ± 410 nM; Kd ([9]; KD, dose-response): 310 nM and 314 nM; Kd [10]: 1900 ± 240 nM; Kd [11]: 950 ± 250 nM
